This note sets out measurements from article PMC8286840, “Identifying SARS-CoV-2 antiviral compounds by screening for small molecule inhibitors of Nsp3 papain-like protease” (Biochemical Journal, 2021).

In test [1] the target is T1, SARS-CoV-2 PLpro (nsp3 1564–1878) (Severe acute respiratory syndrome coronavirus 2, UniProt P0DTD1). Put plainly: biochemical. The arrangement: FRET-quenched peptide (Pro3) cleavage by PLpro, 10 min pre-incubation, slope over 20 min, normalised to no-compound control. The conditions noted are these: low concentration screen, read-out: % of control remaining.
For test [2], the target named is T1, SARS-CoV-2 PLpro (nsp3 1564–1878). Description: biochemical. Also noted: FRET-quenched peptide (Pro3) cleavage by PLpro, 10 min pre-incubation, slope over 20 min, normalised to no-compound control. The conditions noted are these: high concentration screen, read-out: % of control remaining.

Each structure is given as a SMILES string. Counter-ions that a name gives are not always drawn. Like-named read-outs stand apart in the source and are kept apart here.

Regarding `CCCN1CCC[C@@H](c2cccc(C#N)c2)C1` [S(-)-DS 121 hydrochloride], the remaining activity at 1.25 µM in test [1] (Well no.=596) was found to be 100%. In addition, in test [2] (Well no.=596), the remaining activity at 3.75 µM was 101%.

On to `CCN1CCC[C@H]1CNC(=O)c1c(OC)ccc(I)c1O` [S(-)-IBZM], for which the remaining activity at 1.25 µM in test [1] (Well no.=875) amounted to 98.1%. The remaining activity at 3.75 µM in test [2] (Well no.=875) came to 99.1%.

With `CC(C)(C)NCC(O)COc1nsnc1N1CCOCC1` (stereo not drawn) [S(-)-Timolol maleate], the remaining activity at 1.25 µM in test [1] (Well no.=1483) was 97.1%. In addition, the remaining activity at 3.75 µM in test [2] (Well no.=1483) turned out to be 96%.

`CCCN(CCC)[C@H]1CCc2c(F)ccc(O)c2C1` [S(-)-UH-301 hydrochloride]: in test [1] (Well no.=1334), the remaining activity at 1.25 µM is 97.2%. The remaining activity at 3.75 µM in test [2] (Well no.=1334) is 95.3%.

As to `N[C@@H](Cn1ccc(=O)[nH]c1=O)C(=O)O` [S(-)-Willardiine], the remaining activity at 1.25 µM in test [1] (Well no.=1244) was 100%. Further, the remaining activity at 3.75 µM in test [2] (Well no.=1244) worked out at 99.9%.

As for `Brc1ccc([C@H]2CN3CCSC3=N2)cc1` [S(-)-p-Bromotetramisole oxalate], the remaining activity at 1.25 µM in test [1] (Well no.=99) is 104%. For the same compound, the remaining activity at 3.75 µM in test [2] (Well no.=99) came to 102%.

Take `N[C@@H](Cn1cc(I)c(=O)[nH]c1=O)C(=O)O` [S-5-Iodowillardiine]: the remaining activity at 1.25 µM in test [1] (Well no.=1340) turned out to be 102%. The remaining activity at 3.75 µM in test [2] (Well no.=1340) was 99.5%.

For `Nc1nc(SCc2ccc([N+](=O)[O-])cc2)c2ncn([C@@H]3O[C@H](CO)[C@@H](O)[C@H]3O)c2n1` [S-(4-Nitrobenzyl)-6-thioguanosine], the remaining activity at 1.25 µM in test [1] (Well no.=53) was 101%. Besides, in test [2] (Well no.=53), the remaining activity at 3.75 µM stood at 102%.

On to `O=[N+]([O-])c1ccc(CSc2ncnc3c2ncn3[C@@H]2O[C@H](CO)[C@@H](O)[C@H]2O)cc1` [S-(4-Nitrobenzyl)-6-thioinosine], for which the remaining activity at 1.25 µM in test [1] (Well no.=949) is 105%. Besides, the remaining activity at 3.75 µM in test [2] (Well no.=949) stood at 101%.

For the compound `C[C@@](Cc1ccc(O)c(O)c1)(NN)C(=O)O` [S-(-)-Carbidopa], the remaining activity at 1.25 µM in test [1] (Well no.=677) turned out to be 99.2%. The remaining activity at 3.75 µM in test [2] (Well no.=677) came out at 97.9%.

Turning to `CCc1cc(Cl)c(OC)c(C(=O)NC[C@@H]2CCN(CC)C2)c1O` [S-(-)-Eticlopride hydrochloride], the remaining activity at 1.25 µM in test [1] (Well no.=417) was found to be 102%. In addition, in test [2] (Well no.=417), the remaining activity at 3.75 µM was 101%.

For `[N-]=[N+]=Nc1ccc(C(=O)CSC[C@H](NC(=O)CC[C@H](N)C(=O)O)C(=O)NCC(=O)O)cc1` [S-(p-Azidophenacyl)glutathione], the remaining activity at 1.25 µM in test [1] (Well no.=105) worked out at 107%. The remaining activity at 3.75 µM in test [2] (Well no.=105) came out at 110%.

As for `C=CCSC[C@H](N)C(=O)O` [S-Allyl-L-cysteine], in test [1] (Well no.=5435), the remaining activity at 1.25 µM came to 99.1%. Further, the remaining activity at 3.75 µM in test [2] (Well no.=5435) worked out at 97%.

For `CCSC(=N)N` [S-Ethylisothiourea hydrobromide], the remaining activity at 1.25 µM in test [1] (Well no.=459) turned out to be 102%. In addition, in test [2] (Well no.=459), the remaining activity at 3.75 µM came out at 101%.

In the case of `COC(=O)[C@@H](N)CSC/C=C(\C)CC/C=C(\C)CCC=C(C)C` [S-Farnesyl-L-cysteine methylester], the remaining activity at 1.25 µM in test [1] (Well no.=4566) is 98.6%. The remaining activity at 3.75 µM in test [2] (Well no.=4566) is 99.1%.

As to `CSC(=N)NCCC[C@H](N)C(=O)O` [S-Methyl-L-thiocitrulline acetate], in test [1] (Well no.=1024), the remaining activity at 1.25 µM stood at 101%. In addition, the remaining activity at 3.75 µM in test [2] (Well no.=1024) amounted to 101%.

Consider `CSC(=N)N` [S-Methylisothiourea hemisulfate], for which the remaining activity at 1.25 µM in test [1] (Well no.=924) stood at 108%. Moreover, in test [2] (Well no.=924), the remaining activity at 3.75 µM was found to be 103%.

For `CC(=O)N[C@@H](C(=O)O)C(C)(C)SN=O` [S-Nitroso-N-acetylpenicillamine], in test [1] (Well no.=1045), the remaining activity at 1.25 µM is 99.8%. Moreover, the remaining activity at 3.75 µM in test [2] (Well no.=1045) was 98.3%.

As to `N[C@@H](CCC(=O)N[C@@H](CSN=O)C(=O)NCC(=O)O)C(=O)O` [S-Nitrosoglutathione], in test [1] (Well no.=855), the remaining activity at 1.25 µM turned out to be 103%. For the same compound, the remaining activity at 3.75 µM in test [2] (Well no.=855) turned out to be 104%.

As for `N#CC[C@H](C1CCCC1)n1cc(-c2ncnc3[nH]ccc23)cn1` [S-Ruxolitinib], the remaining activity at 1.25 µM in test [1] (Well no.=4841) is 96.7%. The remaining activity at 3.75 µM in test [2] (Well no.=4841) was 97.5%.

As to `COc1ccc(CCN2CCN(CCCc3ccccc3)CC2)cc1OC` [SA4503 (dihydrochloride)], the remaining activity at 1.25 µM in test [1] (Well no.=6991) came to 101%. The remaining activity at 3.75 µM in test [2] (Well no.=6991) was found to be 102%.

For the compound `COc1ccc(CC[C@@H](OC(=O)[C@@H]2CCCCN2C(=O)[C@H](c2cc(OC)c(OC)c(OC)c2)C2CCCCC2)c2cccc(OCCN3CCOCC3)c2)cc1OC` [SAFit2], in test [1] (Well no.=7064), the remaining activity at 1.25 µM worked out at 96.3%. Also, in test [2] (Well no.=7064), the remaining activity at 3.75 µM was determined as 92.2%.

`CC(C)(C)C[C@@H]1N[C@@H](C(=O)N[C@H]2CC[C@H](O)CC2)[C@H](c2cccc(Cl)c2F)[C@]12C(=O)Nc1cc(Cl)ccc12` [SAR405838]: in test [1] (Well no.=6550), the remaining activity at 1.25 µM was determined as 109%. In addition, the remaining activity at 3.75 µM in test [2] (Well no.=6550) was found to be 110%.

`Nc1nccc(-c2c(-c3ccc(F)cc3)ncn2C2CCNCC2)n1` [SB220025]: the remaining activity at 1.25 µM in test [1] (Well no.=2604) came to 99.6%. The remaining activity at 3.75 µM in test [2] (Well no.=2604) turned out to be 99.7%.

Take `COc1nccc(-c2c(-c3ccc(F)cc3)ncn2C2CCNCC2)n1` [SB242235]: the remaining activity at 1.25 µM in test [1] (Well no.=2701) is 105%. In addition, the remaining activity at 3.75 µM in test [2] (Well no.=2701) was 105%.

With `NC(N)=NCCC[C@H](NC(=O)COCC(c1ccccc1)c1ccccc1)C(=O)O` [SB290157 (trifluoroacetate)], the remaining activity at 1.25 µM in test [1] (Well no.=8404) worked out at 94.2%. Also, the remaining activity at 3.75 µM in test [2] (Well no.=8404) was determined as 92.8%.

With `CCOC(=O)[C@H](Cc1ccc([N+](=O)[O-])cc1)NC(=O)c1ccccc1` [SB297006], in test [1] (Well no.=8132), the remaining activity at 1.25 µM came out at 103%. Further, the remaining activity at 3.75 µM in test [2] (Well no.=8132) was 97.6%; in test [2] (Well no.=8211), 102%.

For `CN(C)CCOc1ccc(-c2nc(-c3ccncc3)c(-c3ccc4c(c3)CC/C4=N\O)[nH]2)cc1` [SB590885], the remaining activity at 1.25 µM in test [1] (Well no.=2749) turned out to be 101%. Further, in test [2] (Well no.=2749), the remaining activity at 3.75 µM worked out at 99.9%.

In the case of `O=C(Nc1ccccc1Br)N[C@@H]1CCN(c2ccc(C(F)(F)F)cn2)C1` [SB705498], the remaining activity at 1.25 µM in test [1] (Well no.=4735) is 103%. Further, in test [2] (Well no.=4735), the remaining activity at 3.75 µM came out at 106%.

Take `Oc1ccc(-c2nc(-c3ccc(F)cc3)c(-c3ccncc3)[nH]2)cc1` [SB 202190 - 4-[4-(4-Fluorophenyl)-5-(4-pyridinyl)-1H-imidazol-2-yl]phenol]: in test [1] (Well no.=2380), the remaining activity at 1.25 µM was determined as 96.6%. For the same compound, the remaining activity at 3.75 µM in test [2] (Well no.=2380) is 94.8%.

Turning to `Oc1ccc(-c2nc(-c3ccc(F)cc3)c(-c3ccncc3)[nH]2)cc1` [SB 202190], the remaining activity at 1.25 µM in test [1] (Well no.=2614) was 95%. Further, the remaining activity at 3.75 µM in test [2] (Well no.=2614) was 95.5%.

For `C[S+]([O-])c1ccc(-c2nc(-c3ccc(F)cc3)c(-c3ccncc3)[nH]2)cc1` (centres unmarked) [SB 203580], in test [1] (Well no.=2644), the remaining activity at 1.25 µM amounted to 91.3%. In test [2] (Well no.=2644), the remaining activity at 3.75 µM was found to be 91.7%.
